From patent US20220119354A1, “DIAMINO-SUBSTITUTED PYRIDINES AND PYRIMIDINES AS HERBICIDES” (FMC Corporation, priority 2019, published 2022)

How the values were obtained:
Format in all cases: in vivo
[1] = system: blackgrass (Alopecurus myosuroides); assay: Test A postemergence, blackgrass; details: 0 to 100 scale
How it was run: (§1)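 Seeds sown in loam–sand blend received a directed soil spray of test chemical in non-phytotoxic solvent with surfactant (preemergence); postemergence plants at 2–10 cm, one- to two-leaf stage, were sprayed with the same formulation. Injury rated visually versus untreated controls after ~10 d in greenhouse, 0–100 scale.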

[2] = system: barnyardgrass (Echinochloa crus-galli); assay: Test B flooded paddy test, barnyardgrass; details: Flood, 250 g ai/ha, applied to paddy water, 2-leaf stage, visual evaluation after 13 to 15 d
Procedure: (§2) Plant species in the flooded paddy test selected from rice (Oryza sativa), sedge, umbrella (small-flower umbrella sedge, Cyperus difformis), ducksalad (Heteranthera limosa), and barnyardgrass (Echinochloa crus-galli) were grown to the 2-leaf stage for testing. At the time of treatment, test pots were flooded to 3 cm above the soil surface, treated by application of test compounds directly to the paddy water, and then maintained at that water depth for the duration of the test. Treated plants and controls were maintained in a greenhouse for 13 to 15 d, after which time all species were compared to controls and visually evaluated. Plant response ratings, summarized in Table B, are based on a scale of 0 to 100 where 0 is no effect and 100 is complete control. A dash (-) response means no test result.

[3] = system: wheat (Triticum aestivum); assay: Test A postemergence, wheat; details: 0 to 100 scale
How it was run: as §1

[4] = system: barnyardgrass (Echinochloa crus-galli); assay: Test A preemergence, barnyardgrass; details: 0 to 100 scale, 0 is no effect, 100 is complete control
How it was run: as §1

[5] = system: pigweed (Amaranthus retroflexus); assay: Test A postemergence, pigweed; details: 0 to 100 scale
How it was run: as §1

[6] = system: ryegrass, Italian (Lolium multiflorum); assay: Test A postemergence, Italian ryegrass; details: 0 to 100 scale
How it was run: as §1

[7] = system: kochia (Kochia scoparia); assay: Test A preemergence, kochia; details: 0 to 100 scale, 0 is no effect, 100 is complete control
How it was run: as §1

[8] = system: barnyardgrass (Echinochloa crus-galli); assay: Test A postemergence, barnyardgrass; details: 0 to 100 scale
How it was run: as §1

[9] = system: ragweed (common ragweed, Ambrosia elatior); assay: Test A postemergence, ragweed; details: 0 to 100 scale
How it was run: as §1

[10] = system: rice (Oryza sativa); assay: Test B flooded paddy test, rice; details: Flood, 250 g ai/ha, applied to paddy water, 2-leaf stage, visual evaluation after 13 to 15 d
Procedure: as §2

[11] = system: foxtail, giant (Setaria faberii); assay: Test A preemergence, giant foxtail; details: 0 to 100 scale, 0 is no effect, 100 is complete control
How it was run: as §1

[12] = system: sedge, umbrella (small-flower umbrella sedge, Cyperus difformis); assay: Test B flooded paddy test, umbrella sedge; details: Flood, 250 g ai/ha, applied to paddy water, 2-leaf stage, visual evaluation after 13 to 15 d
Procedure: as §2

[13] = system: ryegrass, Italian (Lolium multiflorum); assay: Test A preemergence, Italian ryegrass; details: 0 to 100 scale, 0 is no effect, 100 is complete control
How it was run: as §1

[14] = system: foxtail, giant (Setaria faberii); assay: Test A postemergence, giant foxtail; details: 0 to 100 scale
How it was run: as §1

[15] = system: galium (catchweed bedstraw, Galium aparine); assay: Test A postemergence, galium; details: 0 to 100 scale
How it was run: as §1

[16] = system: ducksalad (Heteranthera limosa); assay: Test B flooded paddy test, ducksalad; details: Flood, 250 g ai/ha, applied to paddy water, 2-leaf stage, visual evaluation after 13 to 15 d
Procedure: as §2

[17] = system: kochia (Kochia scoparia); assay: Test A postemergence, kochia; details: 0 to 100 scale
How it was run: as §1

[18] = system: pigweed (Amaranthus retroflexus); assay: Test A preemergence, pigweed; details: 0 to 100 scale, 0 is no effect, 100 is complete control
How it was run: as §1

[19] = system: ragweed (common ragweed, Ambrosia elatior); assay: Test A preemergence, ragweed; details: 0 to 100 scale, 0 is no effect, 100 is complete control
How it was run: as §1

[20] = system: corn (Zea mays); assay: Test A postemergence, corn; details: 0 to 100 scale, 0 no effect, 100 complete control
How it was run: as §1

[21] = 500 g ai/ha, 0 is no effect, 100 is complete control
[22] = 31 g ai/ha, 0 no effect, 100 complete control
[23] = 125 g ai/ha, 0 no effect, 100 complete control
[24] = 500 g ai/ha, 0 no effect, 100 complete control

C[C@@H](Nc1ncc(C(F)(F)F)c(N)n1)c1coc2ccccc12 [Compound 52, N2-[(1R)-1-(3-benzofuranyl)ethyl]-5-(trifluoromethyl)-2,4-pyrimidinediamine]
40%: pest or weed control at 125 g/ha ([14]; Setaria faberi, post-emergence, 240 h, 125 g ai/ha, 0 no effect, 100 complete control, read-out: Plant response rating, Foxtail, Giant)
90: Blackgrass plant response rating [1, 21] | Kochia plant response rating ([7]; 125 g ai/ha) | Barnyardgrass plant response rating [8, 21] | Foxtail, Giant plant response rating ([11]; 125 g ai/ha) | Ryegrass, Italian plant response rating ([13]; 500 g ai/ha) | Foxtail, Giant plant response rating [14, 21] | Galium plant response rating [15, 21] | Kochia plant response rating [17, 21]
50%: pest or weed control at 125 g/ha ([1]; Alopecurus myosuroides, post-emergence, 240 h, 125 g ai/ha, 0 no effect, 100 complete control, read-out: Plant response rating, Blackgrass)
80: Ryegrass, Italian plant response rating ([13]; 125 g ai/ha)
80%: pest or weed control at 125 g/ha ([9]; Ambrosia artemisiifolia, post-emergence, 240 h, 125 g ai/ha, 0 no effect, 100 complete control, read-out: Plant response rating, Ragweed) | pest or weed control at 125 g/ha ([15]; Galium, post-emergence, 240 h, 125 g ai/ha, 0 no effect, 100 complete control, read-out: Plant response rating, Galium)
60%: pest or weed control at 125 g/ha ([6]; Lolium multiflorum, post-emergence, 240 h, 125 g ai/ha, 0 no effect, 100 complete control, read-out: Plant response rating, Ryegrass, Italian)
100%: pest or weed control at 125 g/ha ([5]; Amaranthus retroflexus, post-emergence, 240 h, 125 g ai/ha, 0 no effect, 100 complete control, read-out: Plant response rating, Pigweed) | pest or weed control at 250 g/ha ([16]; Heteranthera limosa, 360 h, read-out: Plant response rating, Ducksalad (0 to 100 scale, 0 is no effect, 100 is complete control))
70: Barnyardgrass plant response rating ([4]; 125 g ai/ha)
30: Wheat plant response rating [3, 21]
100: Barnyardgrass plant response rating ([4]; 500 g ai/ha) | Pigweed plant response rating [5, 21] | Ryegrass, Italian plant response rating [6, 21] | Kochia plant response rating ([7]; 500 g ai/ha) | Ragweed plant response rating [9, 21] | Foxtail, Giant plant response rating ([11]; 500 g ai/ha) | Pigweed plant response rating ([18]; 125 g ai/ha) | Pigweed plant response rating ([18]; 500 g ai/ha) | Ragweed plant response rating ([19]; 125 g ai/ha) | Ragweed plant response rating ([19]; 500 g ai/ha)
0%: plant injury at 125 g/ha ([3]; Triticum aestivum, post-emergence, 240 h, 125 g ai/ha, 0 no effect, 100 complete control, read-out: Plant response rating, Wheat)
10%: plant injury at 250 g/ha ([10]; Oryza sativa, 360 h, read-out: Plant response rating, Rice (0 to 100 scale, 0 is no effect, 100 is complete control))
95%: pest or weed control at 250 g/ha ([12]; Cyperus difformis, 360 h, read-out: Plant response rating, Sedge, Umbrella (0 to 100 scale, 0 is no effect, 100 is complete control))
90%: pest or weed control at 250 g/ha ([2]; Echinochloa crus-galli, 360 h, read-out: Plant response rating, Barnyardgrass (0 to 100 scale, 0 is no effect, 100 is complete control)) | pest or weed control at 125 g/ha ([17]; Bassia scoparia, post-emergence, 240 h, 125 g ai/ha, 0 no effect, 100 complete control, read-out: Plant response rating, Kochia)
30%: pest or weed control at 125 g/ha ([8]; Echinochloa crus-galli, post-emergence, 240 h, 125 g ai/ha, 0 no effect, 100 complete control, read-out: Plant response rating, Barnyardgrass)

C[C@@H](Nc1ncc(C(F)(F)F)c(N)n1)c1cc2ccccc2[s+]1[O-] (stereo partly drawn) [Compound 113]
40: Plant response rating, Pigweed [5, 22] | Plant response rating, Ragweed [9, 23] | Plant response rating, Galium [15, 22]
20: Plant response rating, Corn ([20]; 31 g ai/ha) | Kochia plant response rating ([7]; 31 g ai/ha) | Ragweed plant response rating ([19]; 125 g ai/ha)
100: Plant response rating, Pigweed [5, 23]
10: Foxtail, Giant plant response rating ([11]; 125 g ai/ha)
30: Ryegrass, Italian plant response rating ([13]; 125 g ai/ha) | Plant response rating, Kochia [17, 22]
70: Plant response rating, Galium [15, 23] | Plant response rating, Kochia [17, 23]
0: Plant response rating, Blackgrass [1, 22] | Plant response rating, Blackgrass [1, 23] | Plant response rating, Barnyardgrass (0 to 100 scale, 0 is no effect, 100 is complete control) [2] | Plant response rating, Wheat [3, 22] | Plant response rating, Wheat [3, 23] | Plant response rating, Corn ([20]; 125 g ai/ha) | Barnyardgrass plant response rating ([4]; 31 g ai/ha) | Barnyardgrass plant response rating ([4]; 125 g ai/ha) | Plant response rating, Ryegrass, Italian [6, 22] | Plant response rating, Ryegrass, Italian [6, 23] | Plant response rating, Barnyardgrass [8, 22] | Plant response rating, Barnyardgrass [8, 23] | Plant response rating, Ragweed [9, 22] | Plant response rating, Rice (0 to 100 scale, 0 is no effect, 100 is complete control) [10] | Foxtail, Giant plant response rating ([11]; 31 g ai/ha) | Plant response rating, Sedge, Umbrella (0 to 100 scale, 0 is no effect, 100 is complete control) [12] | Ryegrass, Italian plant response rating ([13]; 31 g ai/ha) | Plant response rating, Foxtail, Giant [14, 22] | Plant response rating, Foxtail, Giant [14, 23] | Plant response rating, Ducksalad (0 to 100 scale, 0 is no effect, 100 is complete control) [16] | Ragweed plant response rating ([19]; 31 g ai/ha)
80: Kochia plant response rating ([7]; 125 g ai/ha)

Cc1ccc2c([C@@H](Nc3ncc(C(F)(F)F)c(N)n3)C3CC3)coc2c1 [Compound 91]
0: Plant response rating, Blackgrass [1, 23] | Plant response rating, Blackgrass [1, 24] | Plant response rating, Barnyardgrass (0 to 100 scale, 0 is no effect, 100 is complete control) [2] | Plant response rating, Wheat [3, 23] | Plant response rating, Wheat [3, 24] | Plant response rating, Corn ([20]; 125 g ai/ha) | Plant response rating, Corn ([20]; 500 g ai/ha) | Barnyardgrass plant response rating ([4]; 125 g ai/ha) | Barnyardgrass plant response rating ([4]; 500 g ai/ha) | Plant response rating, Pigweed [5, 23] | Plant response rating, Pigweed [5, 24] | Plant response rating, Ryegrass, Italian [6, 23] | Plant response rating, Ryegrass, Italian [6, 24] | Kochia plant response rating ([7]; 125 g ai/ha) | Kochia plant response rating ([7]; 500 g ai/ha) | Plant response rating, Ragweed [9, 23] | Plant response rating, Ragweed [9, 24] | Plant response rating, Rice (0 to 100 scale, 0 is no effect, 100 is complete control) [10] | Foxtail, Giant plant response rating ([11]; 125 g ai/ha) | Foxtail, Giant plant response rating ([11]; 500 g ai/ha) | Plant response rating, Sedge, Umbrella (0 to 100 scale, 0 is no effect, 100 is complete control) [12] | Ryegrass, Italian plant response rating ([13]; 125 g ai/ha) | Plant response rating, Foxtail, Giant [14, 23] | Plant response rating, Foxtail, Giant [14, 24] | Plant response rating, Galium [15, 23] | Plant response rating, Galium [15, 24] | Plant response rating, Ducksalad (0 to 100 scale, 0 is no effect, 100 is complete control) [16] | Plant response rating, Kochia [17, 23] | Plant response rating, Kochia [17, 24] | Pigweed plant response rating ([18]; 125 g ai/ha) | Pigweed plant response rating ([18]; 500 g ai/ha) | Ragweed plant response rating ([19]; 125 g ai/ha) | Ragweed plant response rating ([19]; 500 g ai/ha)
30: Ryegrass, Italian plant response rating ([13]; 500 g ai/ha)
